Measured values: PubChem BioAssay (NCI)
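Values below derive from 48-hour exposures of cells grown in 96-well plates, with endpoints linearly interpolated between the two concentrations bracketing the appropriate inhibition level. Here, GI50 denotes the concentration required for 50% inhibition of growth. The concentration for full growth arrest is given as TGI.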

How the values were obtained:
Assay in all cases: growth of human tumour cells (NCI), 48 h
UO-31 renal = system: UO-31 renal
SK-MEL-28 melanoma = system: SK-MEL-28 melanoma
SK-MEL-2 melanoma = system: SK-MEL-2 melanoma
M14 melanoma = system: M14 melanoma
HL-60(TB) leukemia = system: HL-60(TB) leukemia
OVCAR-8 ovarian = system: OVCAR-8 ovarian
MDA-MB-435 = system: MDA-MB-435
MALME-3M melanoma = system: MALME-3M melanoma
COLO 205 colon = system: COLO 205 colon
HOP-92 NSCLC = system: HOP-92 NSCLC
OVCAR-3 ovarian = system: OVCAR-3 ovarian
SN12C renal = system: SN12C renal
SF-268 CNS = system: SF-268 CNS
PC-3 prostate = system: PC-3 prostate
KM12 colon = system: KM12 colon
SK-OV-3 ovarian = system: SK-OV-3 ovarian
SW-620 colon = system: SW-620 colon
A498 renal = system: A498 renal
U251 CNS = system: U251 CNS
OVCAR-5 ovarian = system: OVCAR-5 ovarian
NCI/ADR-RES ovarian = system: NCI/ADR-RES ovarian
UACC-257 melanoma = system: UACC-257 melanoma
NCI-H23 lung = system: NCI-H23 lung
SF-295 CNS = system: SF-295 CNS
786-0 renal = system: 786-0 renal
SK-MEL-5 melanoma = system: SK-MEL-5 melanoma
DU-145 prostate = system: DU-145 prostate
LOX IMVI melanoma = system: LOX IMVI melanoma
BT-549 breast = system: BT-549 breast
RPMI-8226 leukemia = system: RPMI-8226 leukemia
MDA-MB-231 breast = system: MDA-MB-231 breast
OVCAR-4 ovarian = system: OVCAR-4 ovarian
EKVX NSCLC = system: EKVX NSCLC
SNB-75 CNS = system: SNB-75 CNS
UACC-62 melanoma = system: UACC-62 melanoma
HCC-2998 colon = system: HCC-2998 colon
MCF7 breast = system: MCF7 breast
HCT-15 colon = system: HCT-15 colon
MOLT-4 leukemia = system: MOLT-4 leukemia
A549 NSCLC = system: A549 NSCLC
TK-10 renal = system: TK-10 renal
K-562 leukemia = system: K-562 leukemia
NCI-H522 lung = system: NCI-H522 lung
HT29 colon = system: HT29 colon
NCI-H226 lung = system: NCI-H226 lung
SNB-19 CNS = system: SNB-19 CNS
HS 578T breast = system: HS 578T breast
HCT-116 colon = system: HCT-116 colon
HOP-62 NSCLC = system: HOP-62 NSCLC
SR leukemia = system: SR leukemia
T-47D breast = system: T-47D breast
ACHN renal = system: ACHN renal
CAKI-1 renal = system: CAKI-1 renal
IGROV1 ovarian = system: IGROV1 ovarian
RXF 393 renal = system: RXF 393 renal
CCRF-CEM leukemia = system: CCRF-CEM leukemia
NCI-H460 lung = system: NCI-H460 lung
SF-539 CNS = system: SF-539 CNS

CCCC(=O)NC(c1ccc2c(c1)OC(F)(F)O2)c1cc(C)c2cccnc2c1O (centres undefined)
GI50 (UO-31 renal): 218 nM | GI50 (SK-MEL-28 melanoma): 637 nM | TGI (SK-MEL-28 melanoma): > 100000 nM | GI50 (SK-MEL-2 melanoma): 1280 nM | TGI (SK-MEL-2 melanoma): > 68700 nM | GI50 (M14 melanoma): 532 nM | TGI (M14 melanoma): 3820 nM | GI50 (HL-60(TB) leukemia): 391 nM | TGI (HL-60(TB) leukemia): > 100000 nM | GI50 (OVCAR-8 ovarian): 406 nM | TGI (OVCAR-8 ovarian): > 100000 nM | GI50 (MDA-MB-435): 1090 nM | TGI (MDA-MB-435): > 100000 nM | GI50 (MALME-3M melanoma): 1080 nM | TGI (MALME-3M melanoma): > 26700 nM | GI50 (COLO 205 colon): 1260 nM | TGI (COLO 205 colon): > 100000 nM | GI50 (HOP-92 NSCLC): 296 nM | TGI (HOP-92 NSCLC): 33400 nM | GI50 (OVCAR-3 ovarian): 437 nM | TGI (OVCAR-3 ovarian): > 100000 nM | GI50 (SN12C renal): 886 nM | TGI (SN12C renal): > 100000 nM | GI50 (SF-268 CNS): 690 nM | TGI (SF-268 CNS): > 100000 nM | GI50 (PC-3 prostate): 651 nM | TGI (PC-3 prostate): > 100000 nM | GI50 (KM12 colon): 793 nM | TGI (KM12 colon): > 100000 nM | GI50 (SK-OV-3 ovarian): 510 nM | TGI (SK-OV-3 ovarian): > 67500 nM | GI50 (SW-620 colon): 695 nM | TGI (SW-620 colon): > 100000 nM | GI50 (A498 renal): > 74700 nM | TGI (A498 renal): > 100000 nM | GI50 (U251 CNS): 473 nM | TGI (U251 CNS): > 84600 nM | GI50 (OVCAR-5 ovarian): 1730 nM | TGI (OVCAR-5 ovarian): > 100000 nM | GI50 (NCI/ADR-RES ovarian): 290 nM | TGI (NCI/ADR-RES ovarian): 4820 nM | GI50 (UACC-257 melanoma): 1300 nM | TGI (UACC-257 melanoma): > 28900 nM | GI50 (NCI-H23 lung): 669 nM | TGI (NCI-H23 lung): > 100000 nM | GI50 (SF-295 CNS): 691 nM | TGI (SF-295 CNS): > 100000 nM | GI50 (786-0 renal): 702 nM | TGI (786-0 renal): > 34500 nM | GI50 (SK-MEL-5 melanoma): 714 nM | TGI (SK-MEL-5 melanoma): 2350 nM | GI50 (DU-145 prostate): 1780 nM | TGI (DU-145 prostate): > 100000 nM | GI50 (LOX IMVI melanoma): 451 nM | TGI (LOX IMVI melanoma): > 33400 nM | GI50 (BT-549 breast): 918 nM | TGI (BT-549 breast): > 100000 nM | GI50 (RPMI-8226 leukemia): 727 nM | TGI (RPMI-8226 leukemia): > 100000 nM | GI50 (MDA-MB-231 breast): 565 nM | TGI (MDA-MB-231 breast): > 100000 nM | GI50 (OVCAR-4 ovarian): 446 nM | TGI (OVCAR-4 ovarian): > 100000 nM | GI50 (EKVX NSCLC): 987 nM | TGI (EKVX NSCLC): > 100000 nM | GI50 (SNB-75 CNS): 685 nM | TGI (SNB-75 CNS): 8430 nM | GI50 (UACC-62 melanoma): 275 nM | TGI (UACC-62 melanoma): 1970 nM | GI50 (HCC-2998 colon): 780 nM | TGI (HCC-2998 colon): > 100000 nM | GI50 (MCF7 breast): 419 nM | TGI (MCF7 breast): > 100000 nM | GI50 (HCT-15 colon): 353 nM | TGI (HCT-15 colon): > 100000 nM | GI50 (MOLT-4 leukemia): 397 nM | TGI (MOLT-4 leukemia): > 100000 nM | GI50 (A549 NSCLC): 993 nM | TGI (A549 NSCLC): > 100000 nM | GI50 (TK-10 renal): 1990 nM | TGI (TK-10 renal): > 100000 nM | GI50 (K-562 leukemia): 367 nM | TGI (K-562 leukemia): > 100000 nM | GI50 (NCI-H522 lung): 326 nM | TGI (NCI-H522 lung): > 32300 nM | GI50 (HT29 colon): 492 nM | TGI (HT29 colon): > 100000 nM | GI50 (NCI-H226 lung): 544 nM | TGI (NCI-H226 lung): > 22800 nM | GI50 (SNB-19 CNS): 825 nM | TGI (SNB-19 CNS): > 100000 nM | GI50 (HS 578T breast): 2190 nM | TGI (HS 578T breast): > 100000 nM | GI50 (HCT-116 colon): 509 nM | TGI (HCT-116 colon): > 100000 nM | GI50 (HOP-62 NSCLC): 592 nM | TGI (HOP-62 NSCLC): > 100000 nM | GI50 (SR leukemia): 436 nM | TGI (SR leukemia): > 100000 nM | GI50 (T-47D breast): 504 nM | TGI (T-47D breast): > 100000 nM | GI50 (ACHN renal): 406 nM | TGI (ACHN renal): > 36600 nM | GI50 (CAKI-1 renal): 438 nM | TGI (CAKI-1 renal): 21400 nM | GI50 (IGROV1 ovarian): 453 nM | GI50 (RXF 393 renal): 3170 nM | TGI (RXF 393 renal): > 47300 nM | GI50 (CCRF-CEM leukemia): 443 nM | TGI (CCRF-CEM leukemia): > 100000 nM | GI50 (NCI-H460 lung): 421 nM | TGI (NCI-H460 lung): > 100000 nM | GI50 (SF-539 CNS): 666 nM | TGI (SF-539 CNS): 12000 nM
